# Tests used:
# [1] = tested on: exon 7-containing SMN protein; assay: Western-blot analysis (H2 and H7 antibodies) of SMN protein in SMA lymphoid cell lines; assay type: cell-based, human
# From the text: Western-blot analysis. Rabbits were immunized with synthetic peptides containing either human SMN amino acids 279-288 from exon 7 or amino acids 72-84 from exon 2. Specific antibodies (H7 and H2 respectively) were purified from rabbit crude sera with an EAH-sepharose 4B column (Pharmacia) according to the manufacturer's instructions.
# Protein samples, prepared from treated and untreated SMA lymphoid cells, were loaded on a 5% polyacrylamide stacking gel above a 12% separating gel, and the gel was run with a discontinuous buffer using Laemmli's method. After electrophoresis, proteins were transferred electrophoretically to polyvinyl difluoride membranes (Millipore Corp., Marlborough, Mass., USA). After the transfer, the membranes were blocked in TBST (50 mM Tris.HCl, pH 7.5, 150 mM NaCl, 0.05% Tween 20) containing 4% BSA (bovine serum albumin) for 2 hours at room temperature. Blots were incubated with a 1:800 dilution of anti-SMN exon 2 (H2) or anti-SMN exon 7 (H7) antibody in TBST for 2 hours at room temperature. […] The secondary antibody was detected with a 1.5% solution of 5-bromo-4-chloro-3-indoyl phosphate and 3% nitro blue tetrazolium in a developing buffer (100 mM NaCl, 5 mM MgCl2, 100 mM Tris.HCl, pH 9.5).
# [2] = tested on: human SMA patients; assay: Treatment of human SMA patients, oral; assay type: in vivo
# [3] = absorbed from the gastrointestinal tract; cited from earlier work
# [4] = tested on: SMA-like mice; assay: Treatment of types 2 and 3 SMA-like mice (hSMN2 Smn-/-) via drinking water; assay type: in vivo, mouse
# Method: To generate hSMN2 Smn^−/− mice, hSMN2 Smn^+/− mice were crossed to Smn^+/− mice. Progeny lacking the murine SMN locus were identified by genotyping. The presence of the hSMN2 transgene was also confirmed.
# The effect of hydroxyurea on the symptoms of SMA-like mice were investigated. Hydroxyurea was administered to ten SMA-like mice with type 2 symptoms and ten SMA-like mice with type 3 symptoms. These mice were identified at birth by genotype and phenotype. Hydroxyurea was administered to the SMA-like mice as 1 mg/ml to 2 mg/ml solution available ad libitum in their drinking water. The amount of hydroxyurea taken by SMA-like mice was estimated to be approximate 5-10 mg/day. The survival time of hydroxyurea-treated type 2 SMA-like mice was longer, about 4 to 5 days longer on average, than untreated mice.
# The effect of hydroxyurea administration on the tail phenotype of SMA-like mice was also monitored. The tails of untreated types 2 and 3 SMA-like mice have decreased diameter of muscle fibers, atrophy of muscle bundles, group atrophy and subcutaneous edema (Hsieh-Li et al. (2000) supra).
structure (smiles),measurement,setting,value
NC(=O)NO [hydroxyurea],intact SMN protein in cytosolic and nuclear fractions,[1]; after 3 hours stimulation with 5 ng/ml to 500 μg/ml,increase
same,levels of exon 7-containing SMN protein,"[1]; lymphoid cell lines from different types of SMA patients, varying amounts, vs untreated controls",increase
same,full-length SMN mRNA transcript in peripheral mononuclear cells,"[2]; SMA patients with SMN1 deletion, oral 15 to 25 mg/kg/day",elevated
same,walking gait,"[2]; one type II patient, improved to a type III phenotype",improved
same,clinical symptoms of all three patients,[2]; oral 15 to 25 mg/kg/day,improved
same,muscle strength,[2]; other type II patient,improved muscle strength
same,respirator dependence,"[2]; type I patient, on respirator before treatment",respirator free
same,time to enter the serum after ingestion,[3],≤ 2 h
same,tail phenotype,"[4]; most of types 2 and 3 SMA-like mice, after treatment",nearly normal phenotype
same,frequency of chronic necrosis originating at the tip of the tail,"[4]; treated SMA-like mice, 50% for untreated",2%
same,"exon 7-containing SMN protein levels in multiple tissues, including spinal cord motor neurons","[4]; western blot and immunohistochemical studies, treated SMA-like mice",elevated

# — patent US6573300B2, “Hydroxyurea treatment for spinal muscular atrophy” (China Medical College Hospital, priority 2001, dated 2003)
